# Data as given in US20060003950A1, “Method of treating prostatic diseases using a combination of vitamin D analogues and other agents” (priority 2004, published 2006).
# Columns and labels:
# vitamin D receptor (VDR) = biological target: T1, vitamin D receptor (VDR) (Homo sapiens, UniProt P11473); assay: Vitamin D-inducible growth hormone reporter production in transfected COS-1 cells
# T1 sequence (P11473 1-427): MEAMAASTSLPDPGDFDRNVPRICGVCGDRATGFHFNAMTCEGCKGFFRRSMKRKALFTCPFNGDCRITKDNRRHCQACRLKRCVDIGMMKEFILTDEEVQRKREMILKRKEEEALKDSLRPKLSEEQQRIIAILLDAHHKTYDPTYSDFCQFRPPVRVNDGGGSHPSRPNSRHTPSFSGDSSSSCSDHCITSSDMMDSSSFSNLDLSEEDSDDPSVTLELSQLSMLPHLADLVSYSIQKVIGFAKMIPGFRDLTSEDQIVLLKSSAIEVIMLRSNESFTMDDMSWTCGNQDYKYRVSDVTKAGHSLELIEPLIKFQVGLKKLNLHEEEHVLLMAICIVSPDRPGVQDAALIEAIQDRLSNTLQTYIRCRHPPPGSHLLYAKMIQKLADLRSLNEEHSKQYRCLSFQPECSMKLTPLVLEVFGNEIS
# Procedure: Cells in culture were co-transfected into Green monkey kidney, COS-1 cells with these two plasmids. One plasmid contained the gene for Growth Hormone (GH) under the control of the vitamin D responsive element (VDRE) and the other plasmid contained the structural gene for the vitamin D receptor (VDR). These transfected cultures were incubated with 1α,24-(OH)2D2 or 1α,25-(OH)2D3, and the production of growth hormone was measured.
# LNCaP [1] = assay: Inhibition of prostate cell proliferation (DNA amount), LNCaP; assay type: cell-based, human; details: 10^−11 M to 10^−7 M, 6-7 days
# Procedure: (§1) The cell lines, LNCaP and PC-3, which are derived from human prostate adenocarcinoma, are seeded in six-well tissue culture plates at a density of about 50,000 cells/plate. After the cells have attached and stabilized, about 2-3 days, the medium is replenished with medium containing vehicle or the active vitamin D analogue 1α,24-(OH)2D2, at concentrations from 10^−11 M to 10^−7 M. Medium containing test analogue or vehicle is replaced every three days. After 6-7 days, the medium is removed, the cells are rinsed, precipitated with cold 5% trichloroacetic acid, and washed with cold ethanol. The cells are solubilized with 0.2 N sodium hydroxide, and the amount of DNA determined by standard procedures.
# PC-3 = assay: Inhibition of prostate cell proliferation (DNA amount), PC-3; assay type: cell-based, human; details: PC-3, 10^−11 M to 10^−7 M, 6-7 days
# Procedure: as §1
# LNCaP [2] = assay: Stimulation of prostate cell differentiation (PSA), LNCaP; assay type: cell-based, human; details: 10^−11 M to 10^−7 M, 6-7 days
# Procedure: Using the techniques of Skowronski et al., 132 Endocrinology (1993) 1952-1960 and 136 Endocrinology (1995) 20-26, both of which are incorporated herein by reference, cells of the cell line, LNCaP, which is derived from a human metastatic prostate adenocarcinoma and known to express PSA, are seeded in six-well tissue culture plates at a density of about 50,000 cells/plate. After the cells have attached and stabilized, about 2-3 days, the medium is replenished with medium containing vehicle or the active vitamin D analogue, 1α,24-(OH)2D2, at concentrations from 10^−11 M to 10^−7 M. After 6-7 days, the medium is removed and stored at −20° C. for prostate specific antigen (PSA) analysis.
# The cells from parallel cultures are rinsed, precipitated, and the amount of DNA determined by standard procedures. PSA is measured by standard known methods.
# [3] = system: Patients with advanced androgen-independent prostate cancer; assay: Open-labeled clinical study of oral 1α,24-(OH)2D2; assay type: in vivo; details: daily oral, first phase
# Text: On admission to the study, patients begin a course of therapy with oral 1α,24-(OH)2D2 lasting 26 weeks, while discontinuing any previous use of calcium supplements, vitamin D supplements, and vitamin D hormone replacement therapies. During treatment, the patients are monitored at regular intervals for: (1) hypercalcemia, hyperphosphatemia, hypercalciuria, hyperphosphaturia and other toxicity; (2) evidence of changes in the progression of metastatic disease; and (3) compliance with the prescribed test drug dosage.
# The study is conducted in two phases. During the first phase, the maximal tolerated dosage (MTD) of daily oral 1α,24-(OH)2D2 is determined by administering progressively higher dosages to successive groups of patients. All doses are administered in the morning before breakfast. […] Subsequent groups of patients are treated with 50.0, 75.0 and 100.0 μg/day.
# During the second phase, patients are treated with 1α,24-(OH)2D2 for 24 months at 0.5 and 1.0 times the MTD.
# prostate VDR = biological target: T2, prostate VDR (Homo sapiens, UniProt P11473); assay: VDR binding in soluble extract of prostate-derived cell lines, competition with 3H-1α,25-(OH)2D3; details: 0.01-100 nM against 1 nM 3H-1α,25-(OH)2D3, 16-20 hr at 4° C.
# T2 construct: endogenous in cells
# T2 sequence (P11473 1-427): T1 sequence (P11473 1-427)
# Procedure: Prostate-derived cell lines are cultured to near confluence, washed and harvested by scraping. Cells are washed by centrifugation, and the cell pellet resuspended in a buffered salt solution containing protease inhibitors. The cells are disrupted by sonication while cooling on ice. The supernatant obtained from centrifuging the disrupted cells at 207,000×g for 35 min at 4° C. is assayed for binding. […] Bound and free hormones are separated with hydroxylapatite using standard procedures. Specific binding is calculated by subtracting nonspecific binding obtained in the presence of a 250-fold excess of nonradioactive 1α,25-(OH)2D3 from the total binding measured.
smiles,measurement,setting,value
"C=C1/C(=C\C=C2/CCC[C@]3(C)[C@@H]([C@H](C)/C=C/[C@@](C)(O)C(C)C)CC[C@@H]23)C[C@@H](O)C[C@@H]1O [1α,24(S)—(OH)2D2, 1α,24(S)-dihydroxyvitamin D2]",Total GH Production*,vitamin D receptor (VDR); Molar Concentration 5 × 10^−8,1182 ng/mL
same,Total GH Production*,vitamin D receptor (VDR); Molar Concentration 5 × 10^−9,1350 ng/mL
same,Total GH Production*,vitamin D receptor (VDR); Molar Concentration 5 × 10^−10,425 ng/mL
"C=C1/C(=C\C=C2/CCC[C@]3(C)[C@@H]([C@H](C)/C=C/C(C)(O)C(C)C)CC[C@@H]23)C[C@H](O)C[C@H]1O (stereo partly drawn) [1α,24-(OH)2D2, 1α,24-dihydroxyvitamin D2]",cell number versus control cultures,LNCaP [1],significantly fewer cells than the control cultures
same,cell number versus control cultures,PC-3,significantly fewer cells than the control cultures
same,"PSA versus control cultures, mass of PSA/cell",LNCaP [2],significantly more PSA than control cultures
same,"MTD relative to level achievable with 1α,25-(OH)2D3",[3],10- to 40 fold
same,maximal tolerated dosage (MTD),[3],above 20.0 μg/day
same,affinity for prostate VDR,prostate VDR,strong affinity
"C=C1CC[C@H](O)C/C1=C/C=C1\CCC[C@]2(C)[C@@H]([C@H](C)CCCC(C)(C)O)CC[C@@H]12 [25-OH-D3, reference compound]",Total GH Production*,vitamin D receptor (VDR); Molar Concentration 1 × 10^−5,775 ng/mL
same,Total GH Production*,vitamin D receptor (VDR); Molar Concentration 1 × 10^−6,1100 ng/mL
same,Total GH Production*,vitamin D receptor (VDR); Molar Concentration 1 × 10^−7,245 ng/mL
"C=C1/C(=C\C=C2/CCC[C@]3(C)[C@@H]([C@H](C)/C=C/[C@](C)(O)C(C)C)CC[C@@H]23)C[C@@H](O)C[C@@H]1O [1α,24(R)—(OH)2D2, 1α,24(R)-dihydroxy-vitamin D2]",Total GH Production*,vitamin D receptor (VDR); Molar Concentration 1 × 10^−7,1300 ng/mL
same,Total GH Production*,vitamin D receptor (VDR); Molar Concentration 1 × 10^−8,1100 ng/mL
same,Total GH Production*,vitamin D receptor (VDR); Molar Concentration 1 × 10^−9,80 ng/mL
